Data reported in US10913727B2, “Modulators of the integrated stress pathway” (Calico Life Sciences LLC, priority 2016, dated 2021).
pEC50: −log10 of the molar value.

System: HEK293T cells carrying the ATF4 luciferase reporter
Assay: ATF4-Luc assay, in vitro model of Vanishing Cell White Matter Disease (VWMD)
Format: cell-based
Conditions: Homo sapiens, HEK-293T, 1 μg/mL tunicamycin, 7 hours, One Glo luminescence
How it was run: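 Compound at 200 nM and tunicamycin at 1 μg/mL were given together for 7 h to HEK293T cells stably transduced with an ATF4 5′-UTR-driven firefly luciferase reporter. Read-out by luminescence, reported as EC50.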

| SMILES | pEC50 |
| --- | --- |
| O=C(COc1ccc(Cl)c(F)c1)NC12CC(NC(=O)c3ncoc3C3CC3)(C1)C2 [Compound 769, N-{3-[2-(4-chloro-3-fluorophenoxy)acetamido]bicyclo[1.1.1]pentan-1-yl}-5-cyclopropyl-1,3-oxazole-4-carboxamide] | < 5.70 |
| Cc1ccc2nc(C(=O)NC34CCC(NC(=O)COc5ccc(Cl)c(F)c5)(CC3)C(O)C4)cn2c1 (stereo not drawn) [Compound 597, N-{4-[2-(4-chloro-3-fluorophenoxy)acetamido]-3-hydroxybicyclo[2.2.2]octan-1-yl}-6-methylimidazo[1,2-a]pyridine-2-carboxamide] | 6.00 to 6.60 |
| Cc1cc(C(=O)NC23CCC(NC(=O)COc4ccc(Cl)c(F)c4)(CC2)C(=O)C3)on1 [Compound 630, N-{4-[2-(4-chloro-3-fluorophenoxy)acetamido]-3-oxobicyclo[2.2.2]octan-1-yl}-3-methyl-1,2-oxazole-5-carboxamide] | 6.00 to 6.60 |
| COc1ccnc(C(=O)NC23CC(NC(=O)COc4ccc(Cl)c(F)c4)(C2)C3)c1 [Compound 177, N-{3-[2-(4-chloro-3-fluorophenoxy)acetamido]bicyclo[1.1.1]pentan-1-yl}-4-methoxypyridine-2-carboxamide] | 6.00 to 6.60 |
| O=C(COc1ccc(Cl)c(F)c1)NC12CCC(NC(=O)c3cnc4ccccn34)(CC1)CC2O (stereo not drawn) [Compound 595, N-{4-[2-(4-chloro-3-fluorophenoxy)acetamido]-3-hydroxybicyclo[2.2.2]octan-1-yl}imidazo[1,2-a]pyridine-3-carboxamide] | 5.70 to 6.00 |
| CCc1nc(C)c(C(=O)NC23CC(NC(=O)COc4ccc(Cl)c(F)c4)(C2)C3)o1 [Compound 906, N-{3-[2-(4-chloro-3-fluorophenoxy)acetamido]bicyclo[1.1.1]pentan-1-yl}-2-ethyl-4-methyl-1,3-oxazole-5-carboxamide] | 6.00 to 6.60 |
| COc1cc(OC)cc(C(=O)NC23CC(NC(=O)COc4ccc(Cl)c(F)c4)(C2)C3)c1 [Compound 303, N-{3-[2-(4-chloro-3-fluorophenoxy)acetamido]bicyclo[1.1.1]pentan-1-yl}-3,5-dimethoxybenzamide] | 5.70 to 6.00 |
| CCCc1nc(C(=O)NC23CCC(NC(=O)COc4ccc(Cl)c(F)c4)(CC2)C(O)C3)cs1 (stereo not drawn) [Compound 502, N-{4-[2-(4-chloro-3-fluorophenoxy)acetamido]-3-hydroxybicyclo[2.2.2]octan-1-yl}-2-propyl-1,3-thiazole-4-carboxamide] | > 7.30 |
| Cc1ncc(C(=O)NC23CC(NC(=O)COc4ccc(Cl)c(F)c4)(C2)C3)c(C)n1 [Compound 784, N-{3-[2-(4-chloro-3-fluorophenoxy)acetamido]bicyclo[1.1.1]pentan-1-yl}-2,4-dimethylpyrimidine-5-carboxamide] | < 5.70 |
| Cc1cc(C(=O)NC23CC(NC(=O)COc4ccc(Cl)c(F)c4)(C2)C3)no1 [Compound 273, N-{3-[2-(4-chloro-3-fluorophenoxy)acetamido]bicyclo[1.1.1]pentan-1-yl}-5-methyl-1,2-oxazole-3-carboxamide] | 6.00 to 6.60 |
| CCn1nc(C(=O)NC23CC(NC(=O)COc4ccc(Cl)c(F)c4)(C2)C3)cc1C [Compound 836, N-{3-[2-(4-chloro-3-fluorophenoxy)acetamido]bicyclo[1.1.1]pentan-1-yl}-1-ethyl-5-methyl-1H-pyrazole-3-carboxamide] | < 5.70 |
| O=C(COc1ccc(C(F)F)c(F)c1)NC12CC(NC(=O)c3cnc(C(F)F)cn3)(C1)C2 [Compound 475, 5-(difluoromethyl)-N-(3-{2-[4-(difluoromethyl)-3-fluorophenoxy]acetamido}bicyclo[1.1.1]pentan-1-yl)pyrazine-2-carboxamide] | 6.60 to 7.30 |
| O=C(COc1ccc(F)c(F)c1)NC12CC(Nc3cncc(-c4cccnc4)n3)(C1)C2 [Compound 743, 2-(3,4-difluorophenoxy)-N-(3-{[6-(pyridin-3-yl)pyrazin-2-yl]amino}bicyclo[1.1.1]pentan-1-yl)acetamide] | < 5.70 |
| Cc1cc2c(C(=O)NC34CC(NC(=O)COc5ccc(Cl)c(Cl)c5)(C3)C4)nccn2n1 [Compound 562, N-{3-[2-(3,4-dichlorophenoxy)acetamido]bicyclo[1.1.1]pentan-1-yl}-2-methylpyrazolo[1,5-a]pyrazine-4-carboxamide] | 6.00 to 6.60 |
| O=C(COc1ccc(Cl)c(F)c1)NC12CC(NC(=O)c3cc(-n4cncn4)ccn3)(C1)C2 [Compound 481, N-{3-[2-(4-chloro-3-fluorophenoxy)acetamido]bicyclo[1.1.1]pentan-1-yl}-4-(1H-1,2,4-triazol-1-yl)pyridine-2-carboxamide] | 5.70 to 6.00 |
| CC(C)c1cc(C(=O)NC23CCC(NC(=O)COc4ccc(Cl)c(F)c4)(CC2)C(O)C3)on1 (stereo not drawn) [Compound 577, N-{4-[2-(4-chloro-3-fluorophenoxy)acetamido]-3-hydroxybicyclo[2.2.2]octan-1-yl}-3-(propan-2-yl)-1,2-oxazole-5-carboxamide] | 6.60 to 7.30 |
| Cc1ccnc(C(=O)NC23CC(NC(=O)COc4ccc(Cl)c(F)c4)(C2)C3)c1 [Compound 525, N-{3-[2-(4-chloro-3-fluorophenoxy)acetamido]bicyclo[1.1.1]pentan-1-yl}-4-methylpyridine-2-carboxamide] | 6.00 to 6.60 |
| COc1nc(C)c(C(=O)NC23CC(NC(=O)COc4ccc(Cl)c(F)c4)(C2)C3)s1 [Compound 872, N-{3-[2-(4-chloro-3-fluorophenoxy)acetamido]bicyclo[1.1.1]pentan-1-yl}-2-methoxy-4-methyl-1,3-thiazole-5-carboxamide] | 6.60 to 7.30 |
| N#CCCc1ccc(C(=O)NC23CCC(NC(=O)COc4ccc(Cl)c(F)c4)(C2)C3)nc1 [Compound 336, N-{4-[2-(4-chloro-3-fluorophenoxy)acetamido]bicyclo[2.1.1]hexan-1-yl}-5-(2-cyanoethyl)pyridine-2-carboxamide] | < 5.70 |
| NCc1ccnc(C(=O)NC23CC(NC(=O)COc4ccc(Cl)c(F)c4)(C2)C3)c1 [Compound 193, 4-(aminomethyl)-N-{3-[2-(4-chloro-3-fluorophenoxy)acetamido]bicyclo[1.1.1]pentan-1-yl}pyridine-2-carboxamide] | 6.60 to 7.30 |
| Cn1cnc2cc(C(=O)NC34CC(NC(=O)COc5ccc(Cl)c(F)c5)(C3)C4)ccc2c1=O [Compound 342, N-{3-[2-(4-chloro-3-fluorophenoxy)acetamido]bicyclo[1.1.1]pentan-1-yl}-3-methyl-4-oxo-3,4-dihydroquinazoline-7-carboxamide] | 6.00 to 6.60 |
| O=C(COc1ccc(Cl)c(F)c1)NC12CC(NC(=O)c3ccc(C(F)(F)F)nc3)(C1)C2 [Compound 203, N-{3-[2-(4-chloro-3-fluorophenoxy)acetamido]bicyclo[1.1.1]pentan-1-yl}-6-(trifluoromethyl)pyridine-3-carboxamide] | 5.70 to 6.00 |
| O=C(COc1ccc(Cl)c(F)c1)NC12CC(NC(=O)c3scc4c3OCCO4)(C1)C2 [Compound 873, N-{3-[2-(4-chloro-3-fluorophenoxy)acetamido]bicyclo[1.1.1]pentan-1-yl}-2,3-dihydrothieno[3,4-b][1,4]dioxine-5-carboxamide] | < 5.70 |
| Cc1nn(C)c2c(NC34CC(NC(=O)COc5ccc(Cl)c(F)c5)(C3)C4)ncnc12 [Compound 426, 2-(4-chloro-3-fluorophenoxy)-N-{3-[(1,3-dimethyl-1H-pyrazolo[4,3-d]pyrimidin-7-yl)amino]bicyclo[1.1.1]pentan-1-yl}acetamide] | < 5.70 |
